# Data published in patent publication US9174968B2, “Pyrimidinone compounds for use in the treatment of diseases or conditions mediated by LP-PLA2” (GLAXO GROUP LIMITED, priority 2010, dated 2015).
# Key:
# [1] = tested on: proinflammatory (M1) and anti-inflammatory (M2) markers in macrophages; assay: Experimental autoimmune encephalomyelitis (EAE) model, ex vivo analysis of M1 and M2 markers by realtime PCR; type: in vivo, rats; details: EAE induced with MBP, splenic macrophages day 13 and CNS infiltrating macrophages
# Description: A further study was carried out to study the impact of Lp-PLA2 inhibitors on modulating M1/M2 imbalance. In this study, rats were induced to develop experimental autoimmune encephalomyelitis (EAE) by immunization with myelin basic protein (MBP) antigen and treated with a known Lp-PLA2 inhibitor: 5-((9-Methoxy-4-oxo-6,7-dihydro-4H-pyrimido[6,1-a]isoquinolin-2-yl)oxy)-2-(3-(trifluoromethyl)phenoxy)benzonitrile (See PCT application no. PCT/CN2011/001597) For preventive treatment, compound administration started at day 0 whereas it started at 7 day in therapeutic treatment. Rats were subsequently monitored for symptoms of EAE. Rats were immunized with MBP to develop EAE and symptoms were monitored daily. Plasma Lp-PLA2 activity and LysoPC concentration were determined at different time points through the course of EAE.
# Ex vivo analysis of proinflammatory (M1) and anti-inflammatory (M2) markers in control and compound treated EAE […]. Splenic macrophages were harvested at day 13 post MBP-immunization and assayed for expression of a variety of markers by realtime PCR. CNS infiltrating cells were harvested and macrophages were analyzed for expression of M1 and M2 markers by realtime PCR.
# [2] = biological target: T1, Lp-PLA2 from plasma (pooled human plasma) (Homo sapiens, UniProt Q13093); assay: Lp-PLA2 human plasma assay (Thio-PAF assay); type: biochemical; details: read-out: pIC50 in the thio-PAF assay (converted)
# T1 construct: from tissue; host or cells: pooled human plasma
# T1 sequence (Q13093 22-441): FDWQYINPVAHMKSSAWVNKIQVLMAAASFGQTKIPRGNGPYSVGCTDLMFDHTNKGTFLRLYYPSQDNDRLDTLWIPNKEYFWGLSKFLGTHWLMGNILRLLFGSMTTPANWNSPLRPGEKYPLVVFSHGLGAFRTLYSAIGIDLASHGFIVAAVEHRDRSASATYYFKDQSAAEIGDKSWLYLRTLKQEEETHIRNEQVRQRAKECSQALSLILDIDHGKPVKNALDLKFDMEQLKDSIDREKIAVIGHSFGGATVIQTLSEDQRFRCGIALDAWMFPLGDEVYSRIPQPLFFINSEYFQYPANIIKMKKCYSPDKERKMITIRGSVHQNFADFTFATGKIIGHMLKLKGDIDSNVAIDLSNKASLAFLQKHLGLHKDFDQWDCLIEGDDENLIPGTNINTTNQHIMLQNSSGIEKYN
# Source text: (3) Lipoprotein-Associated Phospholipase A2 (Lp-PLA2) Human Plasma Assay (Also Referred to as “Thio-PAF Assay”)
# The human plasma assay utilizes a thioester analog of PAF (phosphatidylcholine), where hydrolysis yields to the formation of a phospholipid containing a free thiol group. The amount of thiol is quantitated continuously by reacting with CPM (7-diethylamino-3-(4′-maleimidylphenyl)-4-methylcoumarin), a maleimide which increases in fluorescence after Michael addition of thiols. This assay may detect the activity of Lp-PLA2 from plasma, as determined by specific inhibition by Lp-PLA2 inhibitors.
# The thio-PAF assay was run as a quenched 15 μL assay. Compounds source plate was prepared by making 1:3 (by volume) serial dilution of the compounds into pure DMSO on 384-well microplate. 0.01 μL of compounds on compound source plate were transferred to 384 well Greiner 784076 (black) low-volume plates by ECHO liquid dispenser. 8 μL pooled human plasma, which was previously aliquoted and frozen, was added. Plates were centrifuged for 10 sec at 500 rpm. After 30 minutes preincubation, 2 μL of substrate (2.5 mM thio-PAF, 3.2 mM NEM (N-ethylmaleimide) [made fresh daily in DMSO], and 32 μM CPM [from a DMSO stock] in assay buffer of 50 mM HEPES, pH7.4, 150 mM NaCl, 1 mM CHAPS was added to 384 well Greiner 784076 (black) low-volume plates by BRAVO liquid handling station. Plates were centrifuged for 10 sec at 500 rpm. Plate was covered to protect from light and incubated for 2 min at room temperature. Reaction was quenched with 5 μL of 5% aqueous trifluoroacetic acid (TFA). Plates were covered to protect from light and incubated for 40 min at room temperature. Plates were read at ex: 380/em: 485 using-Envision microplate reader. PIC50 data, curve and QC analysis was conducted by using XLFit module in Excel.
# All exemplified compounds of the present invention were tested in thio-PAF assay or similar assay as described above.
# [3] = biological target: T2, recombinant human Lp-PLA2 (Homo sapiens, UniProt Q13093); assay: Recombinant human Lp-PLA2 assay (rhLp-PLA2, PED6 assay); type: biochemical; details: upper limit for pIC50 obtained in this assay is 9.3
# T2 sequence (Q13093 22-441): T1 sequence (Q13093 22-441)
# Source text: (1) Recombinant Human Lp-PLA2 Assay (rhLp-PLA2) (Also Referred to as “PED6” Assay)
# N-((6-(2,4-dinitrophenyl)amino)-hexanoyl)-2-(4,4-difluoro-5,7-dimethyl-4-bora-3a,4a-diaza-s-indacene-3-pentanoyl)-1-hexadecanoyl-sn-glycero-3-phosphoethanolamine, triethylammonium salt (PED6) is a commercially available fluorescently-labelled phospholipid, which is commercially available from Molecular Probes. There is a quenching para-nitro phenyl (PNP) group in the sn3 position and a Bodipy fluorescein (FL) group in the sn2 position. Upon cleavage with Lp-PLA2, the Bodipy F1 group is liberated and then may result in an increase in fluorescence.
# The PED6 assay was run as an unquenched 10 μL assay. Compounds source plate was prepared by making 1:3 (by volume) serial dilution of the compounds into pure DMSO on 384-well microplate. […] 5 μL of recombinant human Lp-PLA2 enzyme (2 nM rhLp-PLA2 in assay buffer of 50 mM HEPES, pH7.4, 150 mM NaCl, 1 mM CHAPS) was added to each well of the plate with compounds. Plates were centrifuged for 10 sec at 500 rpm. […] Plates were centrifuged for 10 sec at 500 rpm. Plate was covered to protect from light and incubated for 20 min at room temperature. […] PIC50 data, curve and QC analysis was conducted by using XL fit module in Excel.
IC50 [2] [µM],IC50 [3] [µM],Structure (SMILES),M1 markers (proinflammatory) expression [1],M2 markers (anti-inflammatory) expression [1]
> 10,> 10,"CCc1c[nH]c(CCc2ccc(Oc3cccc(C(F)(F)F)c3)cc2)nc1=O [E37, 5-ethyl-2-(4-(3-(trifluoromethyl)phenoxy)phenethyl)pyrimidin-4(1H)-one]",–,–
–,> 10,"CCc1c[nH]c(CCc2ccc(Oc3ccc(F)cc3)cc2)nc1=O [E46, 5-ethyl-2-(4-(4-fluorophenoxy)phenethyl)pyrimidin-4(1H)-one]",–,–
> 10,> 10,"CCc1c[nH]c(OCCc2ccc(Oc3c(F)cc(Cl)cc3F)cc2)nc1=O [E180, 2-(4-(4-chloro-2,6-difluorophenoxy)phenethoxy)-5-ethylpyrimidin-4(1H)-one]",–,–

# More lines, now with the values behind:
Structure (SMILES),IC50 [2] [µM],IC50 [3] [µM],M1 markers (proinflammatory) expression [1],M2 markers (anti-inflammatory) expression [1]
"COc1ccc2c(c1)CCn1c-2cc(Oc2ccc(Oc3cccc(C(F)(F)F)c3)c(C#N)c2)nc1=O [5-((9-Methoxy-4-oxo-6,7-dihydro-4H-pyrimido[6,1-a]isoquinolin-2-yl)oxy)-2-(3-(trifluoromethyl)phenoxy)benzonitrile]",–,–,decrease,increase
"COc1ncc(Cc2c[nH]c(OCCc3ccc(Oc4ncccn4)cc3)nc2=O)cn1 [E147, 5-((2-methoxypyrimidin-5-yl)methyl)-2-(4-(pyrimidin-2-yloxy)phenethoxy)pyrimidin-4(1H)-one]",> 10,> 10,–,–
